Source: PMC5503984, “Characterisation of preproendothelin-1 derived peptides identifies Endothelin-Like Domain Peptide as a modulator of Endothelin-1” (Scientific Reports, 2017)
Where no end group is shown, it is not given here.

Experiments:
[1] = test system: human aortic endothelial cells; experiment: Secretion of ET-1 and proET-1 peptides from cultured human aortic endothelial cells (sandwich ELISA); assay type: cell-based; details: 6 h incubation
Source text: To confirm that proET-1 peptides are a reproducible index of ET-1 synthesis we compared the level of peptide production in cultured human aortic endothelial cells under conditions known to increase or decrease ET-1 expression. These experiments also confirmed that early passage human endothelial cells from primary cultures produce the same peptides with the stoichiometric relationship expected for proET-1 processing.
Figure 3 Correlation between secretion of ET-1 and proET-1 peptides from human aortic endothelial cells. Confluent cultures were incubated for 6 h in basal medium alone, or with 1 mM phosphoramidon (PHA), 2.5 or 5 µg/ml apple procyanidin pentamer (AP-2.5, AP-5), 5 µg/ml grape seed extract (GSE), 10 ng/ml TNFα or 1 ng/ml TGFß. All peptides were measured using specific sandwich ELISAs, and converted to % basal release (A,B,C,E and G). Results are mean ± SD from 4 experiments. Significant differences were determined by ANOVA with Bonferroni correction for multiple comparisons (*P = < 0.05; ***P = < 0.001). (D,F) and (H) show correlations between secretion of ET-1 and the respective proET-1 peptides under the different incubation conditions (excluding data obtained with phosporamidon).
Underlined sequences in Table 1 indicate peptide antigens used to raise specific antisera for sandwich immunoassays following previously described methodologies. Immunogens for ppET-1[93–109] and ppET-1[155–166] were prepared by conjugation via terminal Cys residues to maleimide groups on pre-treated carrier proteins. To enable conjugation of ppET-1[18–30], ppET-1[93–102] and ppET-1[169–186] by the maleimide methodology, synthetic peptides for these antigens included a C-terminal Cys-NH2 residue. Immunogens for ppET-1[42–50] and ppET-1[204–212] were prepared by glutaraldehyde conjugation to carrier protein[30]. For initial characterisation of conditioned media samples, rabbit antisera raised against ppET-1[42–50] and ppET-1[93–102] were used to establish radioimmunoassays for these peptide antigens. Subsequent investigations used sandwich ELISA methodologies with specific IgG purified from antisera using the respective peptide antigens (Table 1) coupled to SulfoLink Coupling Resin (Thermo Scientific/Pierce) or CNBr-Sepharose (GE Healthcare)[30]. Purified IgG for use as detection antibodies were biotinylated with NHS-LC-LC-biotin (Thermo Scientific/Pierce), and used for assay measurements with enhanced chemiluminescence.
EA.hy 926 and A549 cell lines were grown in Dulbecco’s modified Eagle medium with 10% fetal bovine serum at 37 °C in a humidified CO2 incubator (8% CO2, 92% air) as previously described, [30]. Human aortic endothelial cells were passaged cells from primary cultures grown in endothelial cell basal medium with growth supplement (Cell Applications Inc.), and used when confluent to compare secretion of proET-1 peptides with ET-1. Purified apple procyanidin pentamer was from Asahi Breweries (Moriya, Ibaraki 302–0106, Japan), grape seed extract was form Polyphenolics (Madera, CA), TNFα and TGFβ were from R&D Systems.

[2] = Clearance of proET-1 peptides after i.v. bolus in anaesthetised rats; assay type: in vivo, rat; details: rat; for plasma level at 30 s as % of administered peptide, relative to estimates for dilution in circulating blood: 1 nmol/kg i.v., hypothetical maximum plasma concentration 23–35 pmol/ml; for level at time molar at 0.5 min: iv, anaesthetised male Wistar rats, bolus 1 nmol/kg i.v. of each peptide as a combined solution in 0.9% saline/0.1% BSA, arterial plasma, Luminex multiplex immunoassay, mean ± SD, read-out: plasma level 30 s after injection
Method: To examine whether circulating half-lives influenced plasma levels of proET-1 peptides clearance rates were investigated in anaesthetised rats. […] Based on a circulating blood volume of 7.2 ± 0.3 ml per 100 g body weight, a mean weight of 345 ± 6 g and hematocrit of 40–60%, the hypothetical maximum plasma concentrations were 23–35 pmol/ml. However, the levels of NT-proET-1, ELDP and CT-proET-1 30 s after injection were 0.29 ± 0.02, 3.65 ± 0.23, and 11.74 ± 0.64 pmol/ml, respectively. Relative to estimates for dilution in circulating blood, these values represent ≈1%, 10–16%, and 34–51% of administered peptide for NT-proET-1, ELDP and CT-proET-1. Moreover, NT-proET-1 was almost completely cleared from the circulation in <5 min (estimated initial t½ < 20 s).
Figure 5 Comparison of clearance rates of NT-proET-1, ELDP and CT-proET-1 in anaesthetised rats. A bolus dose containing 1 nmol/kg of each proET-1 peptide as a combined solution prepared in 0.9% saline/0.1% BSA was administered i.v. and heparinised arterial blood samples (0.5 ml) were collected at 0.5, 1, 2, 5, 10, 20 and 40 min after administration of proET-1 peptides. NT-proET-1 (mauve circles), ELDP (red circles) and CT-proET-1 (blue circles) were measured by magnetic bead-based multiplex assays using Luminex methodology (values are mean ± SD, except where SD is less than the symbol size).
A multiplexed immunoassay system was used for simultaneous measurement of NT-proET-1, ELDP and CT-proET-1 in small volumes of rat plasma. Capture antibodies were conjugated to magnetic beads (region 45 – NT-proET-1, region 36 – ELDP, and region 27 – CT-proET-1) following standard protocols (Luminex Corporation). For assay capture antibody-coated magnetic beads were diluted as a premixed combination (10 µl/well) and incubated overnight at 4 °C on an orbital plate mixer with plasma (15 µl) and assay buffer (135 µl). For detection, beads were washed using a ring magnet plate washer before adding 25 µl of combined biotinylated detection antibodies and incubating for 2 h at room temperature on an orbital plate mixer.
All experiments were conducted according to the Animals (Scientific Procedures) Act 1986, UK, and approved by the UK Home Office. Clearance rates of proET-1 peptides and blood pressure effects of ELDP were determined in male Wistar rats (Charles River) anaesthetised with sodium thiopentone (120 mg/kg i.p.). Peptides were administered i.v. via a polyethylene catheter in the left femoral vein. Blood samples (0.5 ml) were collected from a catheter in the left carotid artery into chilled 1.5 ml microcentrifuge tubes containing 50 U/5 µl of heparin. Samples were centrifuged at 12,000 rpm for 2 min at 4 °C. Plasma (50 µl aliquots) samples were stored at −80 °C for subsequent analyses. Blood pressure and heart rate were recorded from the left carotid artery via a polyethylene catheter using Labchart 7.1 (AD Instruments Ltd).

[3] = ET-1; cited from earlier work
Source text: After intravenous injection NT-proET-1 was rapidly eliminated from the circulation (t½ < 20 s). Such rapid clearance indicates uptake or metabolism. ET-1 also has a short t½ (30–60 s)[42], [43], which is due primarily to clearance by endothelial ETB receptors in the pulmonary vasculature, [45], and to a lesser extent degradation by neutral endopeptidase 24.11, particularly in post capillary veins, [47]. In the absence of receptor-mediated clearance, the high disappearance rate of NT-proET-1 is likely due to peptidase activity in the circulation, particularly in the pulmonary circulatio ...

[4] = RP-HPLC elution position of synthetic proET-1 peptides; assay type: physicochemical; details: ACE-5 C4 300 Å, 5 µm, 4.6 × 250 mm, 1 ml/min, 0.1% TFA – 10% solvent B (80% CH3CN with 0.1% TFA) over 2 min, then 10–30% B over 50 min, 1 min fractions, absorbance at 280 nm and immunoassay
Method: Figure 2 Size exclusion chromatography of peptide precipitates from (A) EA.hy 926 and (B) A549 cell lines, (C) cation exchange chromatography of conditioned media from EA.hy 926, and HPLC characterisation of pro-ET-1 peptides from EA.hy 926 cells – (D) NT-proET-1, (E) ELDP and (F) CT-proET-1. (A) and (B) proendothelin-1 peptides from EA.hy 926 and A549 cell lines were subjected to size exclusion chromatography (column 1.6 × 100 cm, Sephadex G50 superfine) equilibrated at 4 °C with 0.1 M NaCl containing 0.01 M HCl. Fractions were subjected to immunoassay for ppET-1[42–50] (open circles) and ppET-1[93–102] (closed circles). Elution positions of adrenomedullin (ADM, M r 6029), big ET-1 (bET-1, M r 4283) and ET-1 (M r 2492) are indicated. […] ELDP (red columns) and CT-proET-1 (blue columns) were measured using immunoassays. […]
ProET-1 peptides were subjected to reverse phase HPLC on C4 silica (15 µm, 300 Å pore, 1 × 25 cm; Jupiter® Phenomenex) with gradient elution at 2 ml/min: 0.1% TFA – 15% solvent B (80% CH3CN with 0.1% TFA) over 2 min, followed by 15–60% B over 45 min. […] Synthetic peptides were used to characterise elution positions of NT-proET-1, ELDP and CT-proET-1 on this second HPLC system by monitoring absorbance at 280 nm and immunoassay of fractions. […]

[5] = cited from earlier work
Source text: The endothelin-like domain sequence is highly conserved with the first four Cys residues having identical spacing to ET-1 (Fig. 6)[18], [19]. There is also considerable sequence homology adjacent to the endothelin-like domain, which has been retained throughout mammalian evolution, such that human ppET-1[107–131] has 92% sequence identity with mouse ELDP and 88% with platypus over this sequence. […] However, choice of test conditions and pepti ...

[6] = 1 mM phosphoramidon, 4 experiments
[7] = 1 nmol/kg i.v. bolus, plasma sampled 0.5–40 min, two-phase clearance

CC(C)C[C@H](NP(=O)(O)O[C@@H]1O[C@@H](C)[C@H](O)[C@@H](O)[C@H]1O)C(=O)N[C@@H](Cc1c[nH]c2ccccc12)C(=O)O [phosphoramidon]
ET-1 synthesis [1, 6]: suppressed
proET-1 peptide production (NT-proET-1, ELDP, CT-proET-1) [1, 6]: no effect
increase in big ET-1 compared to basal ([1]; 1 mM phosphoramidon, confluent human aortic endothelial cells, mean ± SD from 4 experiments): 14.9 ± 2.8 fold

APETAVLGAELSAVGENGGEKPTPSPPWRLRRS [NT-proET-1]
time to almost complete clearance from the circulation ([2]; 1 nmol/kg i.v. bolus): < 5 min
estimated initial t½ ([2]; 1 nmol/kg i.v. bolus, plasma): < 20 s
plasma level at 30 s as % of administered peptide, relative to estimates for dilution in circulating blood [2]: ≈ 1%
level at time molar at 0.5 min [2]: 0.29 ± 0.02 nM

Apple procyanidin pentamer
synthesis/secretion of all peptides (ET-1, big ET-1 and proET-1 peptides) ([1]; apple procyanidin pentamer 2.5 or 5 µg/ml, grape seed extract 5 µg/ml, TGFß 1 ng/ml, % basal release, 4 experiments): reduced

Endothelin-1 [ET-1]
t½ in the circulation [3]: 30 to 60 s

SSEEHLRQTRSETMRNSVKSSFHDPKLKGKPSRERYVTHNRAHW [CT-proET-1]
elution position on RP-HPLC (fraction number) [4]: 28 fraction
estimated t½, phase 1 [2, 7]: 42 s
estimated t½, phase 2 [2, 7]: 438 s
plasma level at 30 s as % of administered peptide, relative to estimates for dilution in circulating blood [2]: 34–51%
level at time molar at 0.5 min [2]: 11.7 ± 0.64 nM

TNFα
ET-1 and ELDP in conditioned media ([1]; TNFα 10 ng/ml, 4 experiments): did not change
big ET-1 concentrations ([1]; TNFα 10 ng/ml, 4 experiments): increased
levels of NT-proET-1 and CT-proET-1 in conditioned media ([1]; TNFα 10 ng/ml, 4 experiments): significantly increased

ppET-1[110–130]: preproendothelin [110–130] fragment tested in an earlier study (QCASQKDKKCWNFCQAGKELR; UniProt P05305 110-130, looked up, fragment)
cardiovascular effects [5]: failed to show any cardiovascular effects
